Article PMC8040520 (ACS chemical biology, 2020)

Tested on: BolI
Experiment: steady-state kinetics, CoA production
Type: biochemical, Bradyrhizobium oligotrophicum
Conditions: co-substrate SAM presumed; details in supplement

Km: 3 µM
Compound: CC(C)(COP(=O)(O)OP(=O)(O)OC[C@H]1O[C@@H](n2cnc3c(N)ncnc32)[C@H](O)[C@@H]1OP(=O)(O)O)[C@@H](O)C(=O)NCCC(=O)NCCSC(=O)/C=C/c1ccccc1 [cinnamoyl-CoA]
